Experimental data as given in the NIST ThermoML archive (doi:10.1021/je060271a).
Several values for one entry are separate records, joined by “and”; a condition that tells them apart may be missing. Equal entries are not always repeated. Numbers after ± are expanded uncertainties.

Details: Liquid, Vibrating tube method

CCCCCC(=O)OCC(COC(=O)CCCCC)(COC(=O)CCCCC)COC(=O)CCCCC [pentaerythritol tetrahexanoate]
Details | mass density
303.15 K, 32445 kPa | 1007.6 ± 1.2 kg/m3
303.15 K, 32464 kPa | 1007.7 ± 1.2 kg/m3
303.15 K, 32483 kPa | 1007.6 ± 1.2 kg/m3
303.15 K, 32506 kPa | 1007.5 ± 1.2 kg/m3
303.15 K, 32525 kPa | 1007.6 ± 1.2 kg/m3
303.15 K, 32544 kPa | 1007.5 ± 1.2 kg/m3
303.15 K, 32567 kPa | 1007.6 ± 1.2 kg/m3
303.15 K, 32586 kPa | 1007.6 ± 1.2 kg/m3
303.15 K, 32605 kPa | 1007.7 ± 1.2 kg/m3
303.15 K, 32624 kPa | 1007.6 ± 1.2 kg/m3
303.15 K, 32647 kPa | 1007.7 ± 1.2 kg/m3
303.15 K, 32808 kPa | 1007.7 ± 1.2 kg/m3
303.15 K, 32832 kPa | 1007.7 ± 1.2 kg/m3
303.15 K, 32851 kPa | 1007.8 ± 1.2 kg/m3
303.15 K, 32871 kPa | 1007.7 ± 1.2 kg/m3
303.15 K, 32895 kPa | 1007.8 ± 1.2 kg/m3
303.15 K, 33911 kPa | 1008.4 ± 1.2 kg/m3
303.15 K, 33938 kPa | 1008.4 ± 1.2 kg/m3
303.15 K, 33963 kPa | 1008.4 ± 1.2 kg/m3
303.15 K, 33989 kPa | 1008.3 ± 1.2 kg/m3
303.15 K, 34002 kPa | 1008.3 ± 1.2 kg/m3
303.15 K, 34011 kPa | 1008.3 ± 1.2 kg/m3
303.15 K, 34016 kPa | 1008.3 ± 1.2 kg/m3
303.15 K, 34028 kPa | 1008.4 ± 1.2 kg/m3
303.15 K, 34041 kPa | 1008.4 ± 1.2 kg/m3
303.15 K, 34057 kPa | 1008.4 ± 1.2 kg/m3
303.15 K, 34070 kPa | 1008.3 ± 1.2 kg/m3
303.15 K, 34166 kPa | 1008.4 ± 1.2 kg/m3
303.15 K, 34178 kPa | 1008.6 ± 1.2 kg/m3
303.15 K, 34182 kPa | 1008.4 ± 1.2 kg/m3
303.15 K, 34186 kPa | 1008.5 ± 1.2 kg/m3
303.15 K, 34190 kPa | 1008.5 ± 1.2 kg/m3
303.15 K, 34194 kPa | 1008.5 ± 1.2 kg/m3
303.15 K, 34195 kPa | 1008.6 ± 1.2 kg/m3
303.15 K, 34196 kPa | 1008.5 ± 1.2 kg/m3 and 1008.4 ± 1.2 kg/m3
303.15 K, 34197 kPa | 1008.5 ± 1.2 kg/m3
303.15 K, 34198 kPa | 1008.4 ± 1.2 kg/m3
303.15 K, 34425 kPa | 1008.7 ± 1.2 kg/m3
303.15 K, 34426 kPa | 1008.6 ± 1.2 kg/m3
303.15 K, 34427 kPa | 1008.6 ± 1.2 kg/m3
303.15 K, 34428 kPa | 1008.6 ± 1.2 kg/m3
303.15 K, 34430 kPa | 1008.8 ± 1.2 kg/m3 and 1008.6 ± 1.2 kg/m3
303.15 K, 34431 kPa | 1008.7 ± 1.2 kg/m3
303.15 K, 34432 kPa | 1008.8 ± 1.2 kg/m3
303.15 K, 34434 kPa | 1008.7 ± 1.2 kg/m3 and 1008.6 ± 1.2 kg/m3
303.16 K, 193.7 kPa | 988.5 ± 1.2 kg/m3 and 988.4 ± 1.2 kg/m3
303.16 K, 193.9 kPa | 988.4 ± 1.2 kg/m3
303.16 K, 194.1 kPa | 988.5 ± 1.2 kg/m3 and 988.4 ± 1.2 kg/m3
303.16 K, 194.3 kPa | 988.6 ± 1.2 kg/m3 and 988.4 ± 1.2 kg/m3
303.16 K, 194.4 kPa | 988.6 ± 1.2 kg/m3
303.16 K, 195.5 kPa | 988.4 ± 1.2 kg/m3
303.16 K, 195.6 kPa | 988.5 ± 1.2 kg/m3
303.16 K, 195.7 kPa | 988.5 ± 1.2 kg/m3
303.16 K, 196.9 kPa | 988.5 ± 1.2 kg/m3
303.16 K, 197.4 kPa | 988.5 ± 1.2 kg/m3 and 988.4 ± 1.2 kg/m3
303.16 K, 197.6 kPa | 988.4 ± 1.2 kg/m3
303.16 K, 197.7 kPa | 988.5 ± 1.2 kg/m3
303.16 K, 198.1 kPa | 988.5 ± 1.2 kg/m3
303.16 K, 199.6 kPa | 988.5 ± 1.2 kg/m3
303.16 K, 200 kPa | 988.5 ± 1.2 kg/m3
303.16 K, 200.2 kPa | 988.6 ± 1.2 kg/m3
303.16 K, 200.3 kPa | 988.4 ± 1.2 kg/m3
303.16 K, 200.5 kPa | 988.5 ± 1.2 kg/m3
303.16 K, 200.7 kPa | 988.4 ± 1.2 kg/m3
303.16 K, 201 kPa | 988.5 ± 1.2 kg/m3
303.16 K, 201.2 kPa | 988.5 ± 1.2 kg/m3
303.16 K, 201.4 kPa | 988.6 ± 1.2 kg/m3 and 988.3 ± 1.2 kg/m3
303.16 K, 201.6 kPa | 988.4 ± 1.2 kg/m3
303.16 K, 201.9 kPa | 988.5 ± 1.2 kg/m3
303.16 K, 202.2 kPa | 988.5 ± 1.2 kg/m3
303.16 K, 202.8 kPa | 988.5 ± 1.2 kg/m3
303.16 K, 202.9 kPa | 988.5 ± 1.2 kg/m3
303.16 K, 204.2 kPa | 988.5 ± 1.2 kg/m3
303.16 K, 207.1 kPa | 988.5 ± 1.2 kg/m3
303.16 K, 207.3 kPa | 988.5 ± 1.2 kg/m3
303.16 K, 207.8 kPa | 988.4 ± 1.2 kg/m3
303.16 K, 208 kPa | 988.5 ± 1.2 kg/m3
303.16 K, 208.2 kPa | 988.5 ± 1.2 kg/m3
303.16 K, 209 kPa | 988.5 ± 1.2 kg/m3
303.16 K, 209.2 kPa | 988.5 ± 1.2 kg/m3
303.16 K, 209.5 kPa | 988.6 ± 1.2 kg/m3
303.16 K, 209.7 kPa | 988.4 ± 1.2 kg/m3
303.16 K, 211.5 kPa | 988.5 ± 1.2 kg/m3
303.16 K, 211.8 kPa | 988.5 ± 1.2 kg/m3
303.16 K, 212.7 kPa | 988.4 ± 1.2 kg/m3 and 988.5 ± 1.2 kg/m3
303.16 K, 212.9 kPa | 988.5 ± 1.2 kg/m3
303.16 K, 219.3 kPa | 988.6 ± 1.2 kg/m3
303.16 K, 220.1 kPa | 988.5 ± 1.2 kg/m3
303.16 K, 220.8 kPa | 988.6 ± 1.2 kg/m3
303.16 K, 221.2 kPa | 988.6 ± 1.2 kg/m3 and 988.4 ± 1.2 kg/m3 and 988.5 ± 1.2 kg/m3
303.16 K, 221.4 kPa | 988.6 ± 1.2 kg/m3
303.16 K, 221.5 kPa | 988.6 ± 1.2 kg/m3
303.16 K, 221.9 kPa | 988.5 ± 1.2 kg/m3
303.16 K, 222.2 kPa | 988.6 ± 1.2 kg/m3
303.16 K, 222.4 kPa | 988.5 ± 1.2 kg/m3
303.16 K, 222.8 kPa | 988.6 ± 1.2 kg/m3
303.16 K, 223.1 kPa | 988.5 ± 1.2 kg/m3 and 988.4 ± 1.2 kg/m3
303.16 K, 223.3 kPa | 988.4 ± 1.2 kg/m3
303.16 K, 223.6 kPa | 988.5 ± 1.2 kg/m3
303.16 K, 223.8 kPa | 988.6 ± 1.2 kg/m3
303.16 K, 224 kPa | 988.4 ± 1.2 kg/m3
303.16 K, 224.1 kPa | 988.6 ± 1.2 kg/m3
303.16 K, 224.5 kPa | 988.4 ± 1.2 kg/m3
303.16 K, 225 kPa | 988.6 ± 1.2 kg/m3
303.16 K, 225.2 kPa | 988.4 ± 1.2 kg/m3
303.16 K, 225.7 kPa | 988.5 ± 1.2 kg/m3
303.16 K, 226 kPa | 988.4 ± 1.2 kg/m3
303.16 K, 226.6 kPa | 988.4 ± 1.2 kg/m3 and 988.6 ± 1.2 kg/m3
303.16 K, 227.1 kPa | 988.5 ± 1.2 kg/m3
303.16 K, 227.3 kPa | 988.6 ± 1.2 kg/m3 and 988.5 ± 1.2 kg/m3
303.16 K, 227.6 kPa | 988.5 ± 1.2 kg/m3 and 988.4 ± 1.2 kg/m3 and 988.6 ± 1.2 kg/m3
303.16 K, 231.4 kPa | 988.4 ± 1.2 kg/m3
303.16 K, 232 kPa | 988.5 ± 1.2 kg/m3
303.16 K, 232.1 kPa | 988.5 ± 1.2 kg/m3
303.16 K, 232.7 kPa | 988.5 ± 1.2 kg/m3
303.16 K, 233.9 kPa | 988.5 ± 1.2 kg/m3
303.16 K, 234 kPa | 988.5 ± 1.2 kg/m3 and 988.6 ± 1.2 kg/m3
303.16 K, 234.2 kPa | 988.5 ± 1.2 kg/m3
303.16 K, 234.6 kPa | 988.5 ± 1.2 kg/m3
303.16 K, 234.9 kPa | 988.5 ± 1.2 kg/m3
303.16 K, 235.4 kPa | 988.6 ± 1.2 kg/m3
303.16 K, 235.6 kPa | 988.6 ± 1.2 kg/m3
303.16 K, 236 kPa | 988.5 ± 1.2 kg/m3
303.16 K, 236.1 kPa | 988.6 ± 1.2 kg/m3
303.16 K, 236.3 kPa | 988.5 ± 1.2 kg/m3 and 988.6 ± 1.2 kg/m3
303.16 K, 236.8 kPa | 988.6 ± 1.2 kg/m3 and 988.5 ± 1.2 kg/m3
303.16 K, 237.2 kPa | 988.5 ± 1.2 kg/m3
303.16 K, 237.5 kPa | 988.6 ± 1.2 kg/m3
303.16 K, 237.7 kPa | 988.5 ± 1.2 kg/m3
303.16 K, 238 kPa | 988.6 ± 1.2 kg/m3 and 988.5 ± 1.2 kg/m3
303.16 K, 239.3 kPa | 988.5 ± 1.2 kg/m3
303.16 K, 239.4 kPa | 988.5 ± 1.2 kg/m3
303.16 K, 240 kPa | 988.5 ± 1.2 kg/m3 and 988.6 ± 1.2 kg/m3
303.16 K, 240.3 kPa | 988.4 ± 1.2 kg/m3
303.16 K, 240.5 kPa | 988.5 ± 1.2 kg/m3
303.16 K, 240.8 kPa | 988.5 ± 1.2 kg/m3
303.16 K, 241.3 kPa | 988.5 ± 1.2 kg/m3
303.16 K, 241.5 kPa | 988.5 ± 1.2 kg/m3
303.16 K, 241.7 kPa | 988.5 ± 1.2 kg/m3
303.16 K, 242.2 kPa | 988.6 ± 1.2 kg/m3
303.16 K, 242.6 kPa | 988.5 ± 1.2 kg/m3
303.16 K, 242.7 kPa | 988.6 ± 1.2 kg/m3
303.16 K, 242.9 kPa | 988.6 ± 1.2 kg/m3
303.16 K, 243.3 kPa | 988.4 ± 1.2 kg/m3
303.16 K, 243.4 kPa | 988.5 ± 1.2 kg/m3
